# Results: article PMC9551036, “A selective and orally bioavailable VHL-recruiting PROTAC achieves SMARCA2 degradation in vivo” (Nature Communications, 2022)
# Where “and” joins values, the source holds several entries; their conditions need not be identical. Equal values may be shown once. Read-outs that look alike come from different tables or passages of the source.
# Key:
# [1] = Cell viability assay (CellTiter Glo) in a panel of cell lines; assay type: cell-based, human; settings: for EC50: Homo sapiens; for viability at 1 µM / viability at 0.316 µM / viability at 1.25 µM / viability at 0.313 µM / viability at 0.1 µM: human; for viability at 1 µM: log10 conc -6 mol/l; for viability at 0.316 µM: log10 conc -6.50031 mol/l; for viability at 1.25 µM: log10 conc -5.90309 mol/l; for viability at 0.313 µM: log10 conc -6.50446 mol/l; for viability at 0.1 µM: log10 conc -7 mol/l;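 on % Viability: percent of DMSO-treated control cells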
# Experimental: (§1) 500–2000 cells were seeded in white, clear bottom 96-well plates (Corning or Perkin Elmer) in 180–200 µl medium per well. The next day, compounds were added using a digital dispenser and a T0 sample was measured for reference. Cells were incubated for 144–192 h, and viability (luminescence) was measured using CellTiter Glo or CellTiter Glo 2.0 (Promega) according to manufacturer’s instructions after equilibrating cells and reagents at room temperature and 10–20 min incubation time while shaking.
# [2] = system: panel of cell lines (A549, HCC-364, HCC-515, HCC4006, KYSE-30, LU99, LXFA_629L, LXFA_923L, LXFL_529L, LXFL_1121L, MP38, NCI-H23, NCI-H1355, OV-90, SK-MEL-5 …); experiment: as above; assay type: cell-based, human
# Experimental: as §1
structure (smiles),measurement,setting,value
Cc1ncsc1-c1ccc(C(CCC(C)CCN2CCC(c3ccc4c(c3)n(C3CCCC3)c3nc(=O)c5c(Br)cccc5n43)CC2)NC(=O)C2CC(O)CN2C(=O)C(NC(=O)C2(F)CC2)C(C)(C)C)cc1 (stereo not shown) [ACBI2],EC50,"[1]; A549, A549, read-out: LogEC50 (viability) (converted)",0.0293 µM
same,EC50,"[1]; A549, A549, values derived from curves in Extended Fig 4b, read-out: EC50 mean",0.0293 µM
same,EC50,"[1]; HCC364, HCC-364, read-out: LogEC50 (viability) (converted)",0.0708 µM
same,EC50,"[1]; HCC364, HCC-364, values derived from curves in Extended Fig 4b, read-out: EC50 mean",0.0708 µM
same,EC50,"[1]; HCC515, HCC-515, read-out: LogEC50 (viability) (converted)",0.00211 µM
same,EC50,"[1]; HCC515, HCC-515, values derived from curves in Extended Fig 4b, read-out: EC50 mean",0.00211 µM
same,EC50,"[1]; HCC4006, HCC4006, read-out: LogEC50 (viability) (converted)",0.191 µM
same,EC50,"[1]; HCC4006, HCC4006, values derived from curves in Extended Fig 4b, read-out: EC50 mean",0.191 µM
same,EC50,"[1]; LXFA 629L, LXFA_629L, read-out: LogEC50 (viability) (converted)",0.0165 µM
same,EC50,"[1]; LXFA 629L, LXFA_629L, values derived from curves in Extended Fig 4b, read-out: EC50 mean",0.0165 µM
same,EC50,"[1]; LXFA_923L, read-out: LogEC50 (viability) (converted)",0.00436 µM
same,EC50,"[1]; LXFA_923L, values derived from curves in Extended Fig 4b, read-out: EC50 mean",0.00435 µM
same,EC50,"[1]; LXFL 529L, LXFL_529L, read-out: LogEC50 (viability) (converted)",0.000382 µM
same,EC50,"[1]; LXFL 529L, LXFL_529L, values derived from curves in Extended Fig 4b, read-out: EC50 mean",0.000382 µM
same,EC50,"[1]; Lu-99, LU99, read-out: LogEC50 (viability) (converted)",0.132 µM
same,EC50,"[1]; Lu-99, LU99, values derived from curves in Extended Fig 4b, read-out: EC50 mean",0.132 µM
same,EC50,"[1]; MP38, read-out: LogEC50 (viability) (converted)",0.00875 µM
same,EC50,"[1]; MP38, values derived from curves in Extended Fig 4b, read-out: EC50 mean",0.00875 µM
same,EC50,"[1]; NCI-H1355, NCI-H1355, read-out: LogEC50 (viability) (converted)",0.0156 µM
same,EC50,"[1]; NCI-H1355, NCI-H1355, values derived from curves in Extended Fig 4b, read-out: EC50 mean",0.0156 µM
same,EC50,"[1]; OV-90, OV-90, read-out: LogEC50 (viability) (converted)",0.0675 µM
same,EC50,"[1]; OV-90, OV-90, values derived from curves in Extended Fig 4b, read-out: EC50 mean",0.0675 µM
same,EC50,"[1]; SK-MEL-5, SK-MEL-5, read-out: LogEC50 (viability) (converted)",0.00282 µM
same,EC50,"[1]; SK-MEL-5, SK-MEL-5, values derived from curves in Extended Fig 4b, read-out: EC50 mean",0.00282 µM
same,viability at 1 µM,"[1]; A549 cells, A549",44%
same,viability at 0.316 µM,"[1]; A549 cells, A549",43.1%
same,viability at 1.25 µM,"[1]; HCC4006 cells, HCC4006",42.2%
same,viability at 0.313 µM,"[1]; HCC4006 cells, HCC4006",53.4%
same,viability at 1.25 µM,"[1]; HCC-364 cells, HCC-364",14.6%
same,viability at 0.313 µM,"[1]; HCC-364 cells, HCC-364",20.4%
same,viability at 1 µM,"[1]; HCC-515 cells, HCC-515",15%
same,viability at 0.316 µM,"[1]; HCC-515 cells, HCC-515",22.4%
same,viability at 1.25 µM,"[1]; KYSE-30 cells, KYSE-30",91.1%
same,viability at 0.313 µM,"[1]; KYSE-30 cells, KYSE-30",92.8%
same,viability at 0.313 µM,"[1]; LU99 cells, LU99",30.1%
same,viability at 1 µM,"[1]; LXFA 629L cells, LXFA_629L",14.9%
same,viability at 0.316 µM,"[1]; LXFA 629L cells, LXFA_629L",24.7%
same,viability at 1 µM,"[1]; LXFA 923L cells, LXFA_923L",13.6%
same,viability at 0.316 µM,"[1]; LXFA 923L cells, LXFA_923L",21.4%
same,viability at 1 µM,"[1]; LXFL 529L cells, LXFL_529L",4.39%
same,viability at 0.316 µM,"[1]; LXFL 529L cells, LXFL_529L",6.27%
same,viability at 0.1 µM,"[1]; LXFL 529L cells, LXFL_529L",9.52%
same,viability at 1 µM,"[1]; LXFL 1121L cells, LXFL_1121L",90.4%
same,viability at 0.316 µM,"[1]; LXFL 1121L cells, LXFL_1121L",92.1%
same,viability at 0.1 µM,"[1]; LXFL 1121L cells, LXFL_1121L",89.5%
same,viability at 1 µM,"[1]; MP38 cells, MP38",1.87%
same,viability at 0.316 µM,"[1]; MP38 cells, MP38",0.609%
same,viability at 0.1 µM,"[1]; MP38 cells, MP38",1.6%
same,viability at 1.25 µM,"[1]; NCI-H23 cells, NCI-H23",75.3%
same,viability at 0.313 µM,"[1]; NCI-H23 cells, NCI-H23",76.1%
same,viability at 1.25 µM,"[1]; OV-90 cells, OV-90",35.5%
same,viability at 0.313 µM,"[1]; OV-90 cells, OV-90",45.5%
same,viability at 1.25 µM,"[1]; SK-MEL-5 cells, SK-MEL-5",1.81%
same,viability at 0.313 µM,"[1]; SK-MEL-5 cells, SK-MEL-5",2.34%
same,viability at 1.25 µM,"[1]; TOV-112D cells, TOV-112D",91.7%
same,viability at 0.313 µM,"[1]; TOV-112D cells, TOV-112D",103%
same,HillSlope (viability),[2]; A549,-0.487
same,% Viability,"[2]; A549, log10 conc -7 mol/l",47.919% and 42.1211%
same,% Viability,"[2]; A549, log10 conc -7.50031 mol/l",60.413% and 52.9594%
same,% Viability,"[2]; A549, log10 conc -8 mol/l",70.4787% and 68.1265%
same,% Viability,"[2]; A549, log10 conc -8.50031 mol/l",100.959% and 102.653%
same,HillSlope (viability),[2]; HCC4006,-2.51
same,% Viability,"[2]; HCC4006, log10 conc -7.10735 mol/l",106.752% and 106.118%
same,% Viability,"[2]; HCC4006, log10 conc -8.31158 mol/l",118.541% and 111.324%
same,HillSlope (viability),[2]; HCC-364,-2.992
same,% Viability,"[2]; HCC-364, log10 conc -7.10735 mol/l",39.6895% and 65.8316%
same,% Viability,"[2]; HCC-364, log10 conc -8.31158 mol/l",101.18% and 100.543%
same,HillSlope (viability),[2]; HCC-515,-0.931
same,% Viability,"[2]; HCC-515, log10 conc -7 mol/l",21.3218% and 22.1794%
same,% Viability,"[2]; HCC-515, log10 conc -7.50031 mol/l",21.1243% and 26.9825%
